As usually defined, the inhibition is the share of the control response that was lost under treatment.

The values that follow come from US11730712B2, “Functionalized long-chain hydrocarbon mono- and di-carboxylic acids and derivatives thereof, and their use for the prevention or treatment of disease” (ESPERVITA THERAPEUTICS, INC., priority 2021, dated 2023).

Entries after “also recorded” stand apart in the source; their conditions may differ. Where two headings read alike, the source gives them in different places.

Data set [1] deals with C57BL6J mice on high fat high fructose diet. Nature of the data set: Hepatic de novo lipogenesis (14C-glucose incorporation) in murine model of NASH. The class given is in vivo, mouse. The note with it: for inhibition at 10 mg/kg / inhibition at 30 mg/kg / inhibition at 60 mg/kg: Mus musculus. How it is done: Experimental Protocol. FIG. 17A describes the study protocol. Mice were dosed daily for 7 days with a single dose of either Compound I-32 or Compound I-1 at a dose of 10 mg/kg, 30 mg/kg or 60 mg/kg. On the 8th day of the experiment mice receive final dose of Compound I-32 or Compound I-1, followed one hour later by an I.P. bolus of 14-C Glucose.
C57BL6J (8 weeks of age) were obtained for the Jackson Laboratory and fed a normal chow diet upon arrival. At ˜10 weeks of age, mice were given a diet containing high fat and high fructose (Rodent Diet with 40 kcal % Fat (Mostly Palm Oil), 20 kcal % fructose, and 0.02% cholesterol, obtained from Research Diets, Product Code: D19101102) and housed at thermoneutral conditions (26-29° C.). […] On the morning of day 8, animals received a final dose and after 1 hour […] (PerkinElmer) was administered at a concentration of 12 μCi per mouse in a volume of 0.1 ml in 0.9% saline I.P. One hour after ^14C-glucose was given, animals were anesthetized by I.P. injection of Ketamine/Xylazine (150 mg/12.4 mg/kg, respectively). Blood was drawn through cardiac puncture; the liver was removed, and a sample was from the left lobe and frozen in liquid nitrogen. Liver tissue was chipped on dry-ice and the weight of the chip weight recorded (30-50 mg of tissue). Liver tissue was homogenized in 1 ml of 2:1 chloroform:methanol using a bead homogenizer at 5000 rpm for 2×12 seconds. Samples were incubated with gentle shaking at 4° C. for 2 hours, vortexed for 2×12 seconds, and then centrifuge at 7000 rpm for 10 minutes at 4° C. The supernatant was transferred to a 1.5 ml Eppendorf and 200 μl of 0.9% saline was added. Samples were vortexed for 2×12 seconds and centrifuged at 3000 rpm for 10 minutes at 4° C. 200 μl of the lower organic phase was removed and added to 5 ml of scintillation fluid. The amount radioactivity in the sample was measured by scintillation counting. The number of disintegrations per minute (DPM) were determined over a 5-minute period and normalized to the amount of liver tissue. 5-10 μl of plasma obtained at termination was also counted and lipid/gram tissue counts were normalized to plasma counts. Statistical comparisons were carried out using a one-way ANOVA followed by Dunnett's post hoc test using GraphPad Prism 8 software. A p-value of less than or equal to 0.05 was used as the criterion of significance.

The test system of data set [2] is mouse primary hepatocytes. Put plainly: 14C-acetate incorporation into total lipids in primary mouse hepatocytes. It counts as cell-based. The note with it: Hepatocyte, 4-hour period, read-out: IC50 in μM, inhibition of 14C-acetate incorporation in total lipids. How it is done: After perfusion, collagen digested liver cells were re-suspended in William's E media (11 mM glucose) (Gibco) supplemented with 10% fetal bovine serum (FBS) (Gibco), 2 mM L-glutamine (Gibco) and 1% Antibiotic-Antimycotic (Gibco) mixture and seeded in white opaque 96-well plates. On the following day, the cells were serum-starved for 2 hours, then treated with 0 μM, 0.1 μM, 0.3 μM, 0.5 μM, 1 μM, 3 μM, 10 μM, and 100 μM of Compound I-32, Compound I-1, or Compound III-1 or Reference Compound (e.g., Compounds A-E and bempedoic acid) in the presence of ^14C-Acetate (1 μCi/ml, PerkinElmer). Each of Compound I-32, Compound I-1, Compound III-1, and Reference Compound was solubilized in 100% DMSO to a final concentration of 100 mM stock solution. In the experimental condition, the stock solution was diluted in serum free media (William's E media (11 mM glucose) (Gibco), 2 mM L-glutamine (Gibco) and 1% Anti biotic-Antimycotic) to yield the desired concentration of each compound. […] After 4 hours of treatment, the plates were washed two times with PBS (×1) and 100 μL microscint fluid (Microscint O, part #601361) was added in each well. Plates were wrapped with aluminum foil and were shaken at 250 rpm for 2 h. After 2 h of shaking, ^14C incorporation into lipid was determined by liquid scintillation counting using a TopCount NXT Microplate Scintillation and Luminescence Counter (Perkin Elmer).
The effects of Compound I-32. Compound I-1, and Compound III-1 on mouse primary hepatocyte lipogenesis are represented in Table 1. Each Compound was assayed at a concentration of 0 μM (vehicle control), 0.1 μM, 0.3 μM, 0.5 μM, 1 μM, 3 μM, 10 μM, and 100 μM, unless otherwise noted. Statistically significant inhibition was determined by one-way ANOVA and Dennett's post hoc test where appropriate. […] IC50 values were determined by nonlinear regression. All statistical analyses were carried out using GraphPad Prism 8 software. A p-value of less than or equal 0.05 was considered significant.

The test system of data set [3] is female Wistar Han rats. Nature of the data set: 4-day oral gavage toxicity study in female rats. Conditions: for clinical chemistry: globulin concentration and albumin:globulin ratio: 100 mg/kg/day Compound I-1 or 300 mg/kg/day Compound I-1 or Compound I-32; for compound-related effects in hematology or coagulation test results / compound-related mortality, clinical observations, body weight effects, changes in food consumption / dose whose effects were considered nonadverse: female rats, 4 days; for compound-related effects in hematology or coagulation test results / compound-related mortality, clinical observations, body weight effects, changes in food consumption: 100 or 300 mg/kg/day oral gavage; for dose whose effects were considered nonadverse: oral gavage; for microscopic findings in the liver: ≥100 mg/kg/day Compound I-1 or 300 mg/kg/day Compound I-32.

Where [4] appears, read: 10 mg/kg, read-out: % change from vehicle control, hepatic de novo lipogenesis (inhibition).
The mark [5] stands for this setting: 30 mg/kg, read-out: % change from vehicle control, hepatic de novo lipogenesis (inhibition).
Where [6] appears, read: 60 mg/kg, read-out: % change from vehicle control, hepatic de novo lipogenesis (inhibition).

Consider `CC(C)(CCCCc1cccc(CCCCC(C)(C)C(=O)O)c1)C(=O)O` [Compound I-32, 6-[3-(5-carboxy-5-methylhexyl)-phenyl]-2,2-dimethylhexanoic acid], for which the “% change from vehicle control, hepatic de novo lipogenesis (inhibition)” value (“% change from vehicle control … (inhibition)” for short) in data set [1] (10 mg/kg) is given as 48.79%. Further, the “% change from vehicle control … (inhibition)” value in data set [1] (30 mg/kg) was found to be 37.42%. Also, the “% change from vehicle control … (inhibition)” value in data set [1] (60 mg/kg) was found to be 52.90%. The inhibition at 10 mg/kg in data set [1] (10 mg/kg, 30 mg/kg and 100 mg/kg, all three doses tested (as printed in text), read-out: inhibition of liver lipogenesis) is about 50%. The inhibition at 10 mg/kg in data set [1] (setting [4]) is 49%. Further, the inhibition at 30 mg/kg in data set [1] (setting [5]) was found to be 37%. Besides, the inhibition at 60 mg/kg in data set [1] (setting [6]) is 53%. Besides, the IC50 in data set [2] was 0.34 µM. Further, in data set [3], the “clinical chemistry: globulin concentration and albumin:globulin ratio” value was “minimally lower globulin concentration and minimally higher albumin:globulin ratio”; the “compound-related effects in hematology or coagulation test results” value is recorded as “No Compound I-1- or Compound I-32-related effects in hematology or coagulation test results were identified”; the “compound-related mortality, clinical observations, body weight effects, changes in food consumption” value is “No Compound I-1- or Compound I-32-related mortality, clinical observations, body weight effects, or changes in food consumption were noted”; the “dose whose effects were considered nonadverse” value was 300 mg/kg/day. Moreover, the “microscopic findings in the liver” value in data set [3] is given as “increase in mitoses in hepatocytes; also recorded: periportal hepatocyte vacuolation”. In data set [3] (300 mg/kg/day), the “clinical chemistry: serum urea nitrogen concentration” value is “Minimally lower serum urea nitrogen concentration”.

Consider `CC(C)(CCCCc1ccc(CCCCC(C)(C)C(=O)O)cc1)C(=O)O` [Compound I-1, 6-[4-(5-carboxy-5-methylhexyl)-phenyl]-2,2-dimethylhexanoic acid], for which the “% change from vehicle control … (inhibition)” value in data set [1] (30 mg/kg) is given as 55.65%. Also, the “% change from vehicle control … (inhibition)” value in data set [1] (60 mg/kg) is recorded as 68.96%. The inhibition at 10 mg/kg in data set [1] (setting [4]) is 17.8%. Also, the inhibition at 30 mg/kg in data set [1] (setting [5]) was 56%. Further, the inhibition at 60 mg/kg in data set [1] (setting [6]) amounted to 69%. For the same compound, the IC50 in data set [2] is 0.46 µM. For the same compound, in data set [3], the “clinical chemistry: globulin concentration and albumin:globulin ratio” value is “minimally lower globulin concentration and minimally higher albumin:globulin ratio”; the “compound-related effects in hematology or coagulation test results” value is reported as “No Compound I-1- or Compound I-32-related effects in hematology or coagulation test results were identified”; the “compound-related mortality, clinical observations, body weight effects, changes in food consumption” value was “No Compound I-1- or Compound I-32-related mortality, clinical observations, body weight effects, or changes in food consumption were noted”; the “dose whose effects were considered nonadverse” value was 100 mg/kg/day. Moreover, the “microscopic findings in the liver” value in data set [3] is on record as “increase in mitoses in hepatocytes”. In addition, the “microscopic findings in the kidney” value in data set [3] (300 mg/kg/day) was “tubular degeneration/necrosis, tubular regeneration, and increased mitoses”.
